Assay results taken from patent US8217000B2, “Method for elevating prolactin in mammals” (Cara Therapeutics, Inc., priority 2006, dated 2012).
Counter-ions that a name gives are not always drawn. Non-standard residues stand in square brackets, D forms with d. Residues, ends and D or L forms follow the SMILES beside them. *: point of attachment. NH(4-picolyl) = c1cc(CN*)ccn1; dNle = CCCC[C@@H](N)C(=O)O

Assay: Plasma pharmacokinetics of CR665 after single IV infusion in human subjects
Details: for AUC(0-inf) / clearance / Cmax / MRT / Vd / half-life / Tmax / AUC(0-t): male, human, plasma, iv; for AUC(0-inf): AUC0-∞; for clearance: CL; for MRT: MRTint; for half-life: t1/2, males; for Tmax: median; for AUC(0-t): AUC0-t; for MRTint, geometric least squares mean: Parts A & B
Experimental: This clinical study was conducted as a double blind, placebo controlled, ascending single intravenous (IV) dose, sequential group study. This study was double blind and placebo controlled in order to avoid bias in the collection and evaluation of data during its conduct. […] In each group, subjects received CR665 or placebo. Doses were administered as a single constant rate IV infusion over 1 hour (part A) or 5 minutes (part B) on the morning of Day 1. Doses were administered in an escalating manner following satisfactory review of the safety data and pharmacokinetic data from the lower dose levels. There was a minimum of 6 days between dose escalations to allow sufficient time for an adequate safety review.
Plasma and urine samples for the analysis of CR665 and N oxide metabolite were prepared by solid phase extraction. The centrifuged eluates were quantified by liquid chromatography with tandem mass spectrometric detection (LC MS/MS). The lower limit of quantification was 1 ng/mL.
For pharmacokinetic assessments, blood samples (1×3 mL) were taken from the contralateral forearm vein(s) at the following times: Pre-dose, 15 minutes, 30 minutes, 45 minutes, 1 hour (immediately prior to the end of infusion), 1 hour 5 minutes, 1 hour 10 minutes, 1 hour 15 minutes, 1.5, 2, 2.5, 3, 4, 6, 8, 12, 16, 24, 36 and 48 hours after the start of the infusion). An indwelling cannula (Venflon®; BOC Ohmeda AB, Sweden) was used for all blood collection pre-dose and up to at least 12 hours after the start of the infusion. Otherwise, samples were collected using venipuncture. Blood samples were collected into pre-chilled 3 mL K3EDTA Vacutainer™ tubes (Becton Dickinson UK, Ltd., Oxford) and, after mixing, were placed in a cool box containing crushed ice/water. The samples were centrifuged, within 30 minutes of collection, at 1500 g for 10 minutes at approximately 4° C. For each sample, the separated plasma was transferred into two 5 mL suitably labeled polypropylene tubes, and stored immediately at approximately −20° C. Plasma samples were analyzed for CR665 using liquid chromatography with tandem mass spectrometric detection.
The pharmacokinetic analysis was conducted using WinNonlin Enterprise Version 4.0.1.
Pharmacokinetic parameters were determined from the plasma and urine, concentrations of CR665 and the N-oxide metabolite using non compartmental procedures.
Dose and body weight normalized values (norm) were determined for AUC0-t, AUC0-∞, Cinf and Cmax. Body weight normalized values [norm] were determined for Vz, Vss, CL and CLR.
The pharmacokinetic analysis was conducted using model independent methods as implemented in WinNonlin software, based on plasma concentrations of CR665 from those subjects who have received CR665 and have evaluable plasma concentration-time profiles.
The following plasma pharmacokinetic parameters were determined for CR665: • Cmax Maximum plasma concentration • tmax Time of maximum plasma concentration • t1/2z Terminal half-life=ln(2)/λz • AUC0-1 Area under the plasma concentration-time curve from time zero to time t (time of last quantifiable plasma concentration) • AUCinf Area under the plasma concentration-time curve from time zero to infinity calculated as [AUC0-t+(Clast/λz)] where Clast is the estimated concentration at the last quantifiable concentration curve. • λz Terminal-phase rate constant, also known as Kel • CL Total body clearance=Dose/AUCinf • Vz Volume of distribution based on terminal phase calculated as Vz/F=Dose/λz*AUCinf
Individual elapsed sampling times were used in the pharmacokinetic analysis. Cmax and tmax were obtained directly from the experimental observations. For the purpose of calculating AUC0-t, when two consecutive plasma concentrations below the lower limit of quantification (LLOQ) were encountered after tmax, all subsequent values were excluded from the analysis.

[1] = 0.06 mg/kg, males, 5-minute IV infusion, geometric mean
[2] = 0.06 mg/kg, males, 1 hour IV infusion, geometric mean
[3] = 0.09 mg/kg, males, 5-minute IV infusion, geometric mean
[4] = 0.12 mg/kg, males, 1 hour IV infusion, geometric mean
[5] = 0.24 mg/kg, males, 1 hour IV infusion, geometric mean
[6] = 0.36 mg/kg, males, 1 hour IV infusion, geometric mean
[7] = 0.42 mg/kg, males, 1 hour IV infusion, geometric mean
[8] = 0.48 mg/kg, males, 1 hour IV infusion, geometric mean
[9] = males, all doses, 5-minute infusion

SMILES: CCCC[C@@H](NC(=O)[C@@H](Cc1ccccc1)NC(=O)[C@H](N)Cc1ccccc1)C(=O)N[C@H](CCCNC(=N)N)C(=O)NCc1ccncc1 [CR665, D-phenylalanyl-D-phenylalanyl-D-norleucyl-N-(4-pyridinylmethyl)-D-argininamide, acetate salt] (H-[dF][dF][dNle][dR]-{NH(4-picolyl)})
- AUC(0-inf) [1]: 142 ng·h/mL
- AUC(0-inf) [2]: 132 ng·h/mL
- clearance [1]: 553 mL/min
- clearance [2]: 564 mL/min
- Cmax [1]: 624 ng/mL
- Cmax [2]: 119 ng/mL
- MRT [1]: 30.1 min
- MRT [2]: 33.8 min
- Vd (0.06 mg/kg, Vss, males, 0.06 mg/kg, 5-minute IV infusion, geometric mean): 16.6 L
- Vd (0.06 mg/kg, Vss, males, 0.06 mg/kg, 1 hour IV infusion, geometric mean): 19 L
- Vd (0.06 mg/kg, Vz, males, 5-minute IV infusion, geometric mean): 48 L
- Vd (0.06 mg/kg, Vz, males, 1 hour IV infusion, geometric mean): 35.5 L
- half-life (0.06 mg/kg, 5-minute IV infusion, geometric mean): 60 min
- half-life (0.06 mg/kg, 1 hour IV infusion, geometric mean): 43.7 min
- Tmax (0.06 mg/kg, males, 5-minute IV infusion): 5 min
- Tmax (0.06 mg/kg, males, 1 hour IV infusion): 52.5 min
- AUC(0-t) [3]: 209 ng·h/mL
- AUC(0-inf) [3]: 213 ng·h/mL
- clearance [3]: 575 mL/min
- Cmax [3]: 783 ng/mL
- MRT [3]: 32.2 min
- Vd (0.09 mg/kg, Vss, males, 0.09 mg/kg, 5-minute IV infusion, geometric mean): 18.5 L
- Vd (0.09 mg/kg, Vz, males, 5-minute IV infusion, geometric mean): 56.7 L
- half-life (0.09 mg/kg, 5-minute IV infusion, geometric mean): 68.4 min
- Tmax (0.09 mg/kg, males, 5-minute IV infusion): 5 min
- AUC(0-t) [4]: 267 ng·h/mL
- AUC(0-inf) [4]: 270 ng·h/mL
- clearance [4]: 533 mL/min
- Cmax [4]: 231 ng/mL
- MRT [4]: 43.4 min
- Vd (0.12 mg/kg, Vss, males, 0.12 mg/kg, 1 hour IV infusion, geometric mean): 23.1 L
- Vd (0.12 mg/kg, Vz, males, 1 hour IV infusion, geometric mean): 75.9 L
- half-life (0.12 mg/kg, 1 hour IV infusion, geometric mean): 99 min
- Tmax (0.12 mg/kg, males, 1 hour IV infusion): 45 min
- AUC(0-t) [5]: 474 ng·h/mL
- AUC(0-inf) [5]: 478 ng·h/mL
- clearance [5]: 629 mL/min
- Cmax [5]: 431 ng/mL
- MRT [5]: 36.8 min
- Vd (0.24 mg/kg, Vss, males, 0.24 mg/kg, 1 hour IV infusion, geometric mean): 23.2 L
- Vd (0.24 mg/kg, Vz, males, 1 hour IV infusion, geometric mean): 74.6 L
- half-life (0.24 mg/kg, 1 hour IV infusion, geometric mean): 82.2 min
- Tmax (0.24 mg/kg, males, 1 hour IV infusion): 60 min
- AUC(0-t) [6]: 808 ng·h/mL
- AUC(0-inf) [6]: 812 ng·h/mL
- clearance [6]: 569 mL/min
- Cmax [6]: 779 ng/mL
- MRT [6]: 37.4 min
- Vd (0.36 mg/kg, Vss, males, 0.36 mg/kg, 1 hour IV infusion, geometric mean): 21.2 L
- Vd (0.36 mg/kg, Vz, males, 1 hour IV infusion, geometric mean): 80.6 L
- half-life (0.36 mg/kg, 1 hour IV infusion, geometric mean): 98.4 min
- Tmax (0.36 mg/kg, males, 1 hour IV infusion): 60 min
- AUC(0-t) [7]: 1080 ng·h/mL
- AUC(0-inf) [7]: 1080 ng·h/mL
- clearance [7]: 504 mL/min
- Cmax [7]: 943 ng/mL
- MRT [7]: 37.1 min
- Vd (0.42 mg/kg, Vss, males, 0.42 mg/kg, 1 hour IV infusion, geometric mean): 18.7 L
- Vd (0.42 mg/kg, Vz, males, 1 hour IV infusion, geometric mean): 77.9 L
- half-life (0.42 mg/kg, 1 hour IV infusion, geometric mean): 107 min
- Tmax (0.42 mg/kg, males, 1 hour IV infusion): 60 min
- AUC(0-t) [8]: 1120 ng·h/mL
- AUC(0-inf) [8]: 1120 ng·h/mL
- clearance [8]: 576 mL/min
- Cmax [8]: 982 ng/mL
- MRT [8]: 38.9 min
- Vd (0.48 mg/kg, Vss, males, 0.48 mg/kg, 1 hour IV infusion, geometric mean): 22.4 L
- Vd (0.48 mg/kg, Vz, males, 1 hour IV infusion, geometric mean): 93.3 L
- half-life (0.48 mg/kg, 1 hour IV infusion, geometric mean): 112 min
- Tmax (0.48 mg/kg, males, 1 hour IV infusion): 52.5 min
- AUC0-t (norm), ratio of geometric least squares means 5-minute:1-hour (males): 1.02
- AUC0-∞ (norm), ratio of geometric least squares means 5-minute:1-hour (males): 1.04
- CL, ratio of geometric least squares means 5-minute:1-hour (males): 0.964
- Cmax (norm), ratio of geometric least squares means 5-minute:1-hour (males): 4.49
- Cmax, fold higher for the 5-minute compared to the 1-hour infusion (males): approximately 4.5 fold
- MRTint, ratio of geometric least squares means 5-minute:1-hour (males): 0.923
- Vss, ratio of geometric least squares means 5-minute:1-hour (males): 0.900
- Vz, ratio of geometric least squares means 5-minute:1-hour (males): 1.03
- t1/2, ratio of geometric least squares means 5-minute:1-hour (males): 1.02
- MRTint (males, 0.24 mg/kg, 1 hour IV infusion, geometric mean): 36.8 min
- MRTint, geometric least squares mean (males, 1-hour infusion): 36.3 min
- MRTint, geometric least squares mean (males, 5-minute infusion): 33.5 min
- Pooled between-subject variability for AUC0-∞ [9]: 15.3%
- Pooled between-subject variability for Cmax [9]: 24.1%
